Where a name gives a salt, the structure may show the parent alone.

The conditions of series [1]: total human plasma concentration; cited from earlier work.
Series [2] concerns iHeps in iMPCCs. The settings on record: for TC50 in MPCCs ATP / TC50 in MPCCs Albumin / TC50 in MPCCs Urea: human, 6 days.
The subject of series [3] is primary human hepatocytes in MPCCs. The settings on record: (ref 19), cited from earlier work; for TC50 in MPCCs ATP: concentration at which activity decreases by 50% of DMSO-only controls.

By Cmax is commonly meant the maximum level reached in the sampled fluid or tissue. For `C#CC1(O)CC[C@H]2[C@@H]3CCC4=CC(=O)CC[C@@H]4[C@H]3CC[C@@]21CC` (mixture of isomers) [Norgestrel], the Cmax in series [1] was 9 nM.

Take `C[C@H](CS)C(=O)N1CCC[C@H]1C(=O)O` [Captopril]: in series [1], the Cmax is 4280 nM.

Turning to `CCCCCCCCCCCCCCCC(=O)OC[C@@H](NC(=O)C(Cl)Cl)[C@H](O)c1ccc([N+](=O)[O-])cc1` [Chloramphenicol palmitate], in series [2], the “Model predictions iMPCC (binary decision)” value (shortened to “Model predictions iMPCC”) was “−”. The Cmax in series [1] was 20000 nM.

For the compound `O=C(O)c1cn(C2CC2)c2cc(N3CCNCC3)c(F)cc2c1=O` [Ciprofloxacin HCl], in series [2], the “TC50 in MPCCs ATP” value is 804.2 µM, the “TC50 in MPCCs Albumin” value was 525.3 µM and the “TC50 in MPCCs Urea” value amounted to 326.3 µM.

As for `CCN(CC)CCOc1ccc(C(=C(Cl)c2ccccc2)c2ccccc2)cc1` [Clomiphene citrate], in series [2], the “Model predictions iMPCC” value is “−”. In addition, the Cmax in series [1] is 22 nM.

Consider `CN(C)CCCN1c2ccccc2CCc2ccc(Cl)cc21` [Clomipramine], for which, in series [2], the “TC50 in MPCCs Albumin” value was 9.4 µM and the “TC50 in MPCCs Urea” value is 13.8 µM. Further, in series [3], the “TC50 in MPCCs Albumin” value is 9.4 µM, the “TC50 in MPCCs Urea” value was 9.9 µM and the “TC50 in MPCCs ATP” value was 12.0 µM.

Turning to `C#C[C@]1(O)CC[C@H]2[C@@H]3CCC4=Cc5oncc5C[C@]4(C)[C@H]3CC[C@@]21C` [Danazol], the Cmax in series [1] is 74 nM.

`O=C(O)Cc1ccccc1Nc1c(Cl)cccc1Cl` [Diclofenac]: in series [3], the “TC50 in MPCCs Albumin” value was 141.9 µM, the “TC50 in MPCCs Urea” value is 206.2 µM and the “TC50 in MPCCs ATP” value is 638.4 µM.

Turning to `C[C@]12CC[C@@H]3c4ccc(O)cc4CC[C@H]3[C@@H]1CCC2=O` [Estrone], in series [1], the Cmax was 22 nM.

Turning to `NC(=O)NO` [Hydroxyurea], in series [2], the “TC50 in MPCCs ATP” value was 49358.3 µM and the “TC50 in MPCCs Albumin” value is 18398.4 µM. Moreover, in series [3], the “TC50 in MPCCs Albumin” value is 28616.2 µM, the “TC50 in MPCCs Urea” value was 19647.8 µM and the “TC50 in MPCCs ATP” value is 7407.0 µM. The Cmax in series [1] was 794000 nM.

As for `COC(=O)Nc1nc2ccc(C(=O)c3ccccc3)cc2[nH]1` [Mebendazole], in series [2], the “TC50 in MPCCs Albumin” value amounted to 1.9 µM and the “TC50 in MPCCs Urea” value was found to be 2.3 µM. In series [3], the “TC50 in MPCCs Albumin” value is 11.6 µM and the “TC50 in MPCCs ATP” value is 11.5 µM. In addition, the Cmax in series [1] is 126 nM.

As to `Cn1cc[nH]c1=S` [Methimazole], in series [1], the Cmax is 1870 nM.

For the compound `Clc1ccc(COC(Cn2ccnc2)c2ccc(Cl)cc2Cl)c(Cl)c1` (centres unmarked) [Miconazole], in series [2], the “Model predictions iMPCC” value is “−”. For the same compound, in series [1], the Cmax is 24 nM.

Consider `Cc1ccc(N(CC2=NCCN2)c2cccc(O)c2)cc1` [Phentolamine mesylate], for which the “Model predictions iMPCC” value in series [2] is recorded as “−”. Further, the maximum concentration (Cmax) in series [1] was 86 nM.

In the case of `CCCCC1C(=O)N(c2ccccc2)N(c2ccccc2)C1=O` [Phenylbutazone], in series [3], the “TC50 in MPCCs Albumin” value is 6414.4 µM, the “TC50 in MPCCs Urea” value was 2532.0 µM and the “TC50 in MPCCs ATP” value is 7566.7 µM. Further, in series [1], the Cmax is 487000 nM.

On to `C[C@]12C=CC(=O)C=C1CC[C@@H]1[C@@H]2C(=O)C[C@@]2(C)[C@H]1CC[C@]2(O)C(=O)CO` [Prednisone], for which the “Model predictions iMPCC” value in series [2] is given as “−”. Besides, in series [1], the Cmax was 68 nM.

On to `CC(=O)[C@H]1CC[C@H]2[C@@H]3CCC4=CC(=O)CC[C@]4(C)[C@H]3CC[C@]12C` [Progesterone], for which the Cmax in series [1] is 193 nM.

On to `CC(C)NCC(O)COc1cccc2ccccc12` (centres unmarked) [Propranolol], for which, in series [2], the “Model predictions iMPCC” value is recorded as “−”. Besides, the Cmax in series [1] was 201 nM.

`CN(CCOc1ccc(CC2SC(=O)NC2=O)cc1)c1ccccn1` (centres unmarked) [Rosiglitazone]: the Cmax in series [1] was 1120 nM.

On to `CC(=O)CC(c1ccccc1)c1c(O)c2ccccc2oc1=O` (centres unmarked) [Warfarin], for which, in series [1], the Cmax was 4890 nM.

As to `CCN(CC)C(=O)/C(C#N)=C/c1cc(O)c(O)c([N+](=O)[O-])c1` [entacapone], the “albumin secretions in iMPCCs, toxicity over time and dose” value in series [2] is “time- and dose-dependent toxicities”.

The record behind these values is patent US10266806B2, “Stem cell-derived hepatocytes in co-culture and uses thereof” (Colorado State University Research Foundation, priority 2014, dated 2019).
